Results on 7 compounds are retold here after patent US20240287470A1 (priority 2023, published 2024).

Series [1] concerns HEK293 cells. Type of series: cell-based. The note with it: detergent 0.5% w/v, then 0.2% DB.
Series [2] deals with HEK293 cells. The series can be described thus: CHAPS evaluated at larger scale (1 L bioreactor). Type of series: cell-based. The note with it: final concentration 0.5% w/v. The procedure: CHAPS was identified as a potential detergent candidate in the small scale screens and was evaluated at a larger scale (1 L bioreactor) at a final concentration of 0.5% w/v.
Series [3] has as its system pseudo rabies virus (PRV).
For series [4] the following is noted: cited from earlier work.
In series [5] the test system is HEK293 cells. The series can be described thus: CTAB modifier screen: vg recovery in clarified lysate and loose resin affinity elution. Type of series: cell-based. The following applies: LCD, 0.5% w/v CTAB. The procedure: The modifiers were selected based on their potential to interfere with and inhibit non-specific binding of rAAV3B capsids to heparin sulfate proteoglycan receptors on cells and cell lysis debris. Using 10 mL cell culture aliquots, modifiers were delivered to the culture at the concentrations shown in Table 3 and mixed for 10 min at room temperature (RT) prior to addition of the CTAB lysis detergent. CTAB was added to a final concentration of 0.5% w/v. Fold improvement in productivity was calculated by dividing total vector genomes (vgs) measured by qPCR quantification of copies of the vector transgene in product produced by a test condition over total vgs produced using 0.5% octoxynol-9 and 0.2% DB as the control lysis and flocculation condition. Total vgs were measured in the clarified lysate and in eluate produced by loose resin affinity purification of the clarified lysate. Conditions which produced greater than 2-fold improvement are highlighted in bold in Table 3.

Series [6] has as its system Murine leukemia virus (MuLV).
Setting [7] is: No modifier, LCD (approximately 12E+6 cells/mL), rAAV3B vector.
Setting [8] is: 0.025% CTAB, 90 mins, value from titer plate.
Where [9] appears, read: 0.05% CTAB, 90 mins, value from large volume plating.
The mark [10] stands for this setting: 0.25% CTAB, 90 mins, value from large volume plating.
[11] abbreviates: modifier 80 μM CSE (chondroitin sulfate E).
The mark [12] stands for this setting: modifier 80 μM SOS (sucrose octasulfate).
The mark [13] stands for this setting: modifier 400 ug/mL low molecular weight (LMW) Dextran.
The mark [14] stands for this setting: 0.5% octoxynol-9, 90 mins, value from large volume plating.

Structures can show the parent of a compound that is named as a salt. Where two headings read alike, the source gives them in different places.

Consider `C[C@H](CCC(=O)NCCC[N+](C)(C)CCCS(=O)(=O)[O-])[C@H]1CC[C@H]2[C@@H]3[C@H](O)C[C@@H]4C[C@H](O)CC[C@]4(C)[C@H]3C[C@H](O)[C@]12C` [CHAPS, 3-[(3-cholamidopropyl)dimethylammonio]-1-propanesulfonate], for which the “Fold improvement over octoxynol-9 and DB control (capsid recovery in clarified lysate)” value (shortened to “Fold improvement”) in the series with HEK293 cells [1] (0.2M Arginine modifier, LCD) is recorded as 1.0 fold; with HEK293 cells [1] (0.7M NaCl modifier, LCD) it was 1.6 fold; with HEK293 cells [1] (setting [7]), 2.1 fold. Besides, the “recovery improvement at larger scale” value in the series with HEK293 cells [2] is given as “failed to provide the same recovery improvement at large scale as at small scale”.

On to `CCCCCCCCCCCCCCCC[N+](C)(C)C.[Br-]` [CTAB, cetyltrimethylammonium bromide], for which the “Process demonstrated viral removal or inactivation (Log reduction >1)” value is “Did not demonstrate inactivation” in series [3] (0.025% CTAB, 90 mins); “Demonstrated inactivation” in series [3] (0.05% CTAB, 90 mins); “Demonstrated inactivation” in series [3] (0.25% CTAB, 90 mins). The “Minimum reduction values Run 1” value in series [3] (setting [8]) was 0.71 ± 0.44 Log; in series [3] (setting [9]), at least 4.31 ± 0.27 Log; in series [3] (setting [10]) it was at least 4.73 ± 0.25 Log. Further, the “Minimum reduction values Run 2” value is given as 0.71 ± 0.39 Log in series [3] (setting [8]), at least 4.67 ± 0.21 Log in series [3] (setting [9]) and at least 4.73 ± 0.31 Log in series [3] (setting [10]). Further, the “Fold improvement” value in the series with HEK293 cells [1] (No modifier, HCD (approximately 18E+6 cells/mL), rAAV3B vector) is on record as 2.8 fold; in the series on HEK293 cells [1] (setting [7]) it was 1.6 fold. For the same compound, the critical micelle concentration result is “about 0.63 mM” in series [4] (in water in the presence of MgSO4) and “about 1.04 mM” in series [4] (in water). Further, the “fold productivity over octoxynol-9/DB control - affinity elution” value in the series on HEK293 cells [5] (setting [11]) was determined as 0.05 fold; with HEK293 cells [5] (setting [12]) it was 3.20 fold; with HEK293 cells [5] (setting [13]) it was 1.20 fold; with HEK293 cells [5] (modifier 6 mM ZnSO4), 2.41 fold; in the series on HEK293 cells [5] (modifier 50 mM MgSO4), 7.77 fold; with HEK293 cells [5] (no modifier), 3.81 fold. In addition, the “fold productivity over octoxynol-9/DB control - clarified lysate” value is recorded as 1.22 fold in the series on HEK293 cells [5] (setting [11]); 2.61 fold with HEK293 cells [5] (setting [12]); 0.14 fold in the series on HEK293 cells [5] (setting [13]); 1.86 fold in the series with HEK293 cells [5] (modifier 6 mM ZnSO4); 3.21 fold in the series on HEK293 cells [5] (modifier 50 mM MgSO4); 2.81 fold in the series on HEK293 cells [5] (no modifier).

Take `C[C@H](CCC(=O)O)[C@H]1CC[C@H]2[C@@H]3CC[C@@H]4C[C@H](O)CC[C@]4(C)[C@H]3C[C@H](O)[C@]12C` [DOC, deoxycholic acid sodium salt]: the “Fold improvement” value in the series with HEK293 cells [1] (setting [7]) stood at 0.1 fold.

`CCCCCCCCCCCC(=O)OCCOCCOCCOCCOCCOCCOCCOCCOCCOCCOCCOCCOCCOCCOCCOCCOCCOCCOCCOCCOCC(OCCOCCOCCOCCOCCOCCOCCOCCOCCOCCOCCOCCOCCOCCOCCOCCOCCOCCOCCOCCO)C1OCC(OCCOCCOCCOCCOCCOCCOCCOCCOCCOCCOCCOCCOCCOCCOCCOCCOCCOCCOCCOCCO)C1OCCOCCOCCOCCOCCOCCOCCOCCOCCOCCOCCOCCOCCOCCOCCOCCOCCOCCOCCOCCO` (stereo not shown) [PS20, polysorbate 20]: the “Fold improvement” value with HEK293 cells [1] (0.2M Arginine modifier, LCD) came out at 1.8 fold; in the series with HEK293 cells [1] (0.7M NaCl modifier, LCD), 0.7 fold; with HEK293 cells [1] (setting [7]), 0.5 fold.

Take `CCCCCCCCCCCCOS(=O)(=O)[O-].[Na+]` [SDS, sodium dodecyl sulfate]: the “Fold improvement” value stood at 0.9 fold with HEK293 cells [1] (0.2M Arginine modifier, LCD); 0.2 fold in the series on HEK293 cells [1] (0.7M NaCl modifier, LCD); 0.1 fold with HEK293 cells [1] (setting [7]).

As to `CCCCCCCCCCCC(=O)N(C)CC(=O)[O-].[Na+]` [sarkosyl], in the series on HEK293 cells [1] (setting [7]), the “Fold improvement” value was 0.3 fold.

For the compound Octoxynol-9 [reference compound], the “Process demonstrated viral removal or inactivation (Log reduction >1)” value is given as “Demonstrated inactivation” in series [3] (0.5% octoxynol-9, 90 mins) and “Demonstrated inactivation” in series [6]. For the same compound, the “Minimum reduction values Run 1” value in series [3] (setting [14]) was at least 4.43 ± 0.28 Log; in series [6] it was at least 4.43 ± 0.25 Log. Further, the “Minimum reduction values Run 2” value was at least 4.19 ± 0.18 Log in series [3] (setting [14]) and at least 4.49 ± 0.27 Log in series [6].
